Results reported in patent publication US6664065B2, “Measuring viral reverse transcriptase activity” (priority 2000, dated 2003).

Experiments:
rHIV RT = target: T1, rHIV RT (Human immunodeficiency virus type 1 group M subtype B, UniProt P03366); assay: TaqMan real-time RT-PCR assay of rHIV RT inhibition by a test agent; format: biochemical, HIV
T1 construct: rHIV RT—Worthington Biochemical catalogue No. 5006 (500 U at 12.5 U/μL); purchased Worthington Biochemical 5006
Experimental: In this regard, oligo dT is used as a template for rHIV RT. Oligo dT is complementary to the polyadenylated RNA-component of the total human heart RNA which present in the reaction mixture. rHIV RT forms cDNA from the oligo dT/RNA complex in the presence of dNTP nucleotides.
Thus, the temperature cycling conditions for rHIV RT were about 25° C. for 10 minutes, followed by about 37° C. for 60 minutes, and finally 95° C. for 5 minutes. At 95° C., the activity of rHIV RT was destroyed.
In this context, the test agent preferably is added when the template RNA, the primer which is complementary to the template RNA, and the dNTPs are mixed in the presence of the sample. Accordingly, although the sample may contain active RT, cDNA transcription by the RT can be inhibited by the presence of the test agent in the reaction mixture.
The inhibiting properties of the test agent are reflected in an increase in CT value for the sample which contains the test agent.
An rHIV RT solution (Master Mix solution)was prepared which contained 5 μL 10× RT reaction buffer, 11 μL 25 mM MgCl2, 10 μL 10 mM dNTP working stock solution, 2.5 μL 50 μM oligo dT, 1 μL RNAse inhibitor and 1.25 μL rHIV RT. The total volume of the Master Mix solution was 30.75 μL.
were added to 30.75 μL of the Master Mix solution. Thus, the reaction mixture contained 50 μL total solution volume.
The controls for the present example included a positive control containing 18.25 μL water plus 1 μL RNA, and a negative control containing 19.25 μL water. […]

taq polymerase = target: T2, taq polymerase (Thermus aquaticus, UniProt P19821); assay: AZT included in the PCR reaction mixture in place of dT (TaqMan PCR step); format: biochemical
T2 construct: purchased Perkin Elmer PE 4304437
Text: Next, an aliquot of the cDNA formed in the RT step above is brought into the Taqman® instrument (PE Model 7700) and put into a reaction mixture which contains Taqman® Universal master mix (taq polymerase in buffer), beta actin-specific forward primer, beta actin-specific reverse primer, and beta actin Taqman® probe. The PCR step takes place in the instrument under standard Taqman® PCR conditions. Although, as described above, the present method is depicted as a two test tube reaction, one skilled in the art will realize that these steps can be combined in a single reaction vessel.
The transcriptase reaction was initiated by placing the reaction mixture in a MWG Thermocycler, or equivalent, under thermocycling conditions at 25° C. for 10 minutes, then at 37° C. for 60 minutes, and finally at 95° C. for 5 minutes. This final thermocycling step deactivated the rHIV RT. Next 5 μL of the post-thermocycle RT reaction mixture, which presumably contained cDNA, were added to 45 μL of the Master Mix solution. The Master Mix Solution contained 25 μL 2×Taqman Universal Master Mix, 5 μL beta Actin Forward Primer, 5 μL Beta Actin Reverse Primer and […]. Thus, the total PCR reaction mixture contained 50 μL. […]

[1] = AZT 1.25 mM down to 250 μM in RT reaction mixture with a fixed concentration of dT, all concentrations

T2 sequence (P19821 whole entry): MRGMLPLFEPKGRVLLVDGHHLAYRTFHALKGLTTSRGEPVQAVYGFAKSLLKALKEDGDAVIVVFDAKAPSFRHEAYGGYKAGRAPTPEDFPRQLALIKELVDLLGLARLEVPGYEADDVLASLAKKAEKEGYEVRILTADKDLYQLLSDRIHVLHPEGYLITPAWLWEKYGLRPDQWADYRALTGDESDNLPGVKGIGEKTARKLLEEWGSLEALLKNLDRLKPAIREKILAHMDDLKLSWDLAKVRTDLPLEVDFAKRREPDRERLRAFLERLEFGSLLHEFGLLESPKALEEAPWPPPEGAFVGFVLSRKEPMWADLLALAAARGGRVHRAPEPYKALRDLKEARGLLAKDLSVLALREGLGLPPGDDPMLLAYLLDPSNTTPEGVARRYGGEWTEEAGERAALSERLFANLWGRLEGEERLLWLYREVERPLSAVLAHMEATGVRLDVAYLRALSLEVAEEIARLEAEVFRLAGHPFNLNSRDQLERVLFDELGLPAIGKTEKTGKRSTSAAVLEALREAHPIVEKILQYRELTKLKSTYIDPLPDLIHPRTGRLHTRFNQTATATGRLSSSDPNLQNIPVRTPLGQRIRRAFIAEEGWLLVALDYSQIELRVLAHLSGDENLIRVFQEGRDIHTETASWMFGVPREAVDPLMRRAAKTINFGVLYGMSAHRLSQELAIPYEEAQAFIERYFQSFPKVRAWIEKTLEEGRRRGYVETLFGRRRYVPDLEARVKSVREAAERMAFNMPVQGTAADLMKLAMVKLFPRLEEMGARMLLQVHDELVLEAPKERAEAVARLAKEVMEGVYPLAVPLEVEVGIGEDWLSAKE

In the case of `Cc1cn([C@H]2C[C@H](N=[N+]=[N-])[C@@H](CO)O2)c(=O)[nH]c1=O` [AZT], the “amplification of cDNA after the PCR step” value (rHIV RT; AZT 250 μM to 1.25 mM added to the rHIV-RT reaction mixture in place of dT) is reported as “no amplification of cDNA was observed”, the inhibition of activity (rHIV RT; [1]) is reported as 100% and the “observed CT” value (rHIV RT; [1]) is reported as “greater than 40 cycles”. For the same compound, the “amplification of the cDNA after the PCR step” value (taq polymerase) was “NO amplification”.
